Laboratory results reported in patent publication US8846750B2, “Pharmaceutical and food compositions for preventing or treating diabetes or obesity” (Korea Ocean Research and Development Institute, priority 2010, dated 2014).
pIC50: −log10 of the molar value.

Biological target: T1, PTP-1b (Homo sapiens, UniProt P18031)
T1 construct: purchased Bioneer, Korea
T1 sequence (P18031 1-435): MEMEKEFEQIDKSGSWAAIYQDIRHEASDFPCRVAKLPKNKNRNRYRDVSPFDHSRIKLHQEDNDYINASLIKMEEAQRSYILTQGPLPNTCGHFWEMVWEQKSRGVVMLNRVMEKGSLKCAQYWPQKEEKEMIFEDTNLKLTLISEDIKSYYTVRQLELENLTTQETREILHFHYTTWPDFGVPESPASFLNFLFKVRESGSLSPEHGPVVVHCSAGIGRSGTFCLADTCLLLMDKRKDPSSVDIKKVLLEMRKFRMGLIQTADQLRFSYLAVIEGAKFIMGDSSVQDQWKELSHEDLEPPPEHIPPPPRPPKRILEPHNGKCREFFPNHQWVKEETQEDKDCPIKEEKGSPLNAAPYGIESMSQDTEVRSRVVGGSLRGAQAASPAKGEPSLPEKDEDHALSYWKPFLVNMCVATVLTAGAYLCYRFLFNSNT
Assay: PTP-1b inhibitory activity of lobaric acid (control), pNPP assay
Format: biochemical
Conditions: read-out: IC50 against PTP-1b
Experimental: Meanwhile, the PTP-1b inhibitory activity of lobaric acid as a control was measured. PTP-1b used in the test was purchased from BIOMOL (USA). In order to spectroscopically measure the activity of the enzyme, about 0.2 μg/Ml of PTP-1b, PTP-1b buffer (50 mM citrate, pH 6.0, 0.1M NaCl, 1 mM EDTA, 1 mM DTT), lobaric acid, 4 mM pNPP were mixed, shaken lightly, and then reacted at 37° C. for 30 minutes, after which the absorbance at 405 nm was measured.

pIC50: 6.06
SMILES: CCCCCc1c2c(cc(O)c1C(=O)O)OC(=O)c1c(cc(OC)cc1C(=O)CCCC)O2 [lobaric acid]
